# Assay results from patent US9084828B2, “Oligomer-protein tyrosine kinase inhibitor conjugates” (Nektar Therapeutics, priority 2009, dated 2015).
# Legend:
# Format in all cases: biochemical
# ABL(T315I) = ABL(T315I) (Homo sapiens, UniProt P00519, T315I); test: Activity against various protein tyrosine kinases: ABL(T315I)
# Protocol: Using techniques know those of ordinary skill in the art, compounds were tested for activity against various protein tyrosine kinases.
# AKT1 = AKT1 (Homo sapiens, UniProt P31749); test: Activity against various protein tyrosine kinases: AKT1
# Chain of AKT1 (P31749 whole entry, species assumed): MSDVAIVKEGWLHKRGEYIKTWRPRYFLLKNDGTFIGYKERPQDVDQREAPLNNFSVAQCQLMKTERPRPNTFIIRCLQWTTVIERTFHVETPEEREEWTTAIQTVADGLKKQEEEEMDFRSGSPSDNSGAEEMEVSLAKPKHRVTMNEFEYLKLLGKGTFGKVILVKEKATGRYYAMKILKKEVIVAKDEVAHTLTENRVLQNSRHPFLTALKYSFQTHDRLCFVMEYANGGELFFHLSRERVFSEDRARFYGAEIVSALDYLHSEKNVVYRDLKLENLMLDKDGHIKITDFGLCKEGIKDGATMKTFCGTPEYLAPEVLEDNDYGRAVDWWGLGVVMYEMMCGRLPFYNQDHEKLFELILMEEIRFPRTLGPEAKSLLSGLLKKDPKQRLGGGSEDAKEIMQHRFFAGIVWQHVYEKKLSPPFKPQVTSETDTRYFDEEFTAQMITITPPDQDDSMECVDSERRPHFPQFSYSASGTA
# CaMKII (beta) = CaMKII (beta) (Homo sapiens, UniProt Q13554); test: Activity against various protein tyrosine kinases: CaMKII (beta)
# CHK1 = target: T1, CHK1 (Homo sapiens, UniProt O14757); test: Activity against various protein tyrosine kinases: CHK1
# T1 sequence (O14757 1-476): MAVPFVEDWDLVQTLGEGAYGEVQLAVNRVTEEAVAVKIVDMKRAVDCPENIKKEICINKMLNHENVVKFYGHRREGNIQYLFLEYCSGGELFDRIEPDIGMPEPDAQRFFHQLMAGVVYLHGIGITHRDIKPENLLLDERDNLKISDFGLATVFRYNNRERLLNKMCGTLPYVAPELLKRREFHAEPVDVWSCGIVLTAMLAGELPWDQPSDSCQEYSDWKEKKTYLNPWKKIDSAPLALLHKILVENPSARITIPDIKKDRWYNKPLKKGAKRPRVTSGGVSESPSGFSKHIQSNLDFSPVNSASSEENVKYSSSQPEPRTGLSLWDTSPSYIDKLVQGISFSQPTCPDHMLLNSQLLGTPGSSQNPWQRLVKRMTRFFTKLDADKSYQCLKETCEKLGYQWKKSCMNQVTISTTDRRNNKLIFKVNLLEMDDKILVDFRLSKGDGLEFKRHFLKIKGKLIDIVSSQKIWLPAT
# Erk2 = Erk2 (Homo sapiens, UniProt P28482); test: Activity against various protein tyrosine kinases: Erk2
# FGFR2(N549H) = FGFR2(N549H) (Homo sapiens, UniProt P21802, N549H); test: Activity against various protein tyrosine kinases: FGFR2(N549H)
# Chain of FGFR2(N549H) (P21802 22-821 N549H, species assumed): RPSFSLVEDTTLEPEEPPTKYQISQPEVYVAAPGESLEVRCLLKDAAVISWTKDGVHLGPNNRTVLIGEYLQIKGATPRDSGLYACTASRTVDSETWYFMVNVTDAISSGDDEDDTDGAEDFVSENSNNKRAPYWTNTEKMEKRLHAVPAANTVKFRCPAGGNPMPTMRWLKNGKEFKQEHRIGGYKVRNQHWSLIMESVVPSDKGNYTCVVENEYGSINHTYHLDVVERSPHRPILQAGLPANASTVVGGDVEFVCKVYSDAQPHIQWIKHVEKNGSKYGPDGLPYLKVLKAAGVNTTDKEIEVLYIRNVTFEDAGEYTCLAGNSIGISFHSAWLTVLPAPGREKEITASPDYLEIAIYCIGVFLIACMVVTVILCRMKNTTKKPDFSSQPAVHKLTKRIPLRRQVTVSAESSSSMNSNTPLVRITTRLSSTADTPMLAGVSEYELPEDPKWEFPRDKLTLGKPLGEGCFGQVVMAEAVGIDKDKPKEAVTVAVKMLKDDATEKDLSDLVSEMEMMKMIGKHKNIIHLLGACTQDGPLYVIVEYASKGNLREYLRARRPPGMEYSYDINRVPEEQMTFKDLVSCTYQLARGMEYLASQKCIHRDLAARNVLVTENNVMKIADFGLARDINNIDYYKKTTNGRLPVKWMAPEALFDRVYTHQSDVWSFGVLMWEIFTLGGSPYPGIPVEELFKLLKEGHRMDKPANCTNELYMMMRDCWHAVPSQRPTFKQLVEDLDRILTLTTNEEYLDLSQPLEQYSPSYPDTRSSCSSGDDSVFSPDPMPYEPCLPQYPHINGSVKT
# FGFR4 = FGFR4 (Homo sapiens, UniProt P22455); test: Activity against various protein tyrosine kinases: FGFR4
# Chain of FGFR4 (P22455 22-802, species assumed): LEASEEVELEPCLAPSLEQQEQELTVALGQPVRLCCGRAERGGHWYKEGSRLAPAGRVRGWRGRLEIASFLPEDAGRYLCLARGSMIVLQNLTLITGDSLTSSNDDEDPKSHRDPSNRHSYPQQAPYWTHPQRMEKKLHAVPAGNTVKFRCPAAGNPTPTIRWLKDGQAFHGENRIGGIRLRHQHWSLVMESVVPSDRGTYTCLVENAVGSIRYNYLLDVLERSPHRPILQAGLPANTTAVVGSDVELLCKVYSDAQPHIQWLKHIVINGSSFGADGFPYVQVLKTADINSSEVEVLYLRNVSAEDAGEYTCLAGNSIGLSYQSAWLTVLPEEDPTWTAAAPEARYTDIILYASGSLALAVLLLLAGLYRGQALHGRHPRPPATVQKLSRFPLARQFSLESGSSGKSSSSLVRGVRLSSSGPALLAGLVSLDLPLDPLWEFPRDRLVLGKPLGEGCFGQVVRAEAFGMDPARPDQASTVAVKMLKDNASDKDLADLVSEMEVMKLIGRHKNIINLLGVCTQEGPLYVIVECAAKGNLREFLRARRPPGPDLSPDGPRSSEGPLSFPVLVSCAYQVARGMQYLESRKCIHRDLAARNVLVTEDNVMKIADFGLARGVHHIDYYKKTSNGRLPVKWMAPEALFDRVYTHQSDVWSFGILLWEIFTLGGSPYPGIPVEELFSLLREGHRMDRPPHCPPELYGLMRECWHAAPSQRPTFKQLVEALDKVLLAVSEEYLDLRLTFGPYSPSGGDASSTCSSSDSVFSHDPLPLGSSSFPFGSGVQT
# HCK = HCK (Homo sapiens, UniProt P08631); test: Activity against various protein tyrosine kinases: HCK
# Chain of HCK (P08631 whole entry, species assumed): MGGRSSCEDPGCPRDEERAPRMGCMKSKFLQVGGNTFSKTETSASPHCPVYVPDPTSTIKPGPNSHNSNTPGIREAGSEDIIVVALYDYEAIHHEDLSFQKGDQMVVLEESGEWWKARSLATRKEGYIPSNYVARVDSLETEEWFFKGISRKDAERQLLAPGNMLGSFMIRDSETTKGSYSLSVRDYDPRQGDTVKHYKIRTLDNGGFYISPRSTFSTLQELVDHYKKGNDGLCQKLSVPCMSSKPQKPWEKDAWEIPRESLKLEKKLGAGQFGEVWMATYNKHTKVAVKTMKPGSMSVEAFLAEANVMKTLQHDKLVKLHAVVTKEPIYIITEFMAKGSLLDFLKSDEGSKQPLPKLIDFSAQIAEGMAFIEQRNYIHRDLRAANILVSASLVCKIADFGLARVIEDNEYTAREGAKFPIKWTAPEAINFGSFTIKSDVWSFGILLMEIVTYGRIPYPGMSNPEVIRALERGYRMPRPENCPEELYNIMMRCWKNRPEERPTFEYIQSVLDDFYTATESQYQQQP
# INSR = INSR (Homo sapiens, UniProt P06213); test: Activity against various protein tyrosine kinases: INSR
# Chain of INSR (P06213 28-1382, species assumed): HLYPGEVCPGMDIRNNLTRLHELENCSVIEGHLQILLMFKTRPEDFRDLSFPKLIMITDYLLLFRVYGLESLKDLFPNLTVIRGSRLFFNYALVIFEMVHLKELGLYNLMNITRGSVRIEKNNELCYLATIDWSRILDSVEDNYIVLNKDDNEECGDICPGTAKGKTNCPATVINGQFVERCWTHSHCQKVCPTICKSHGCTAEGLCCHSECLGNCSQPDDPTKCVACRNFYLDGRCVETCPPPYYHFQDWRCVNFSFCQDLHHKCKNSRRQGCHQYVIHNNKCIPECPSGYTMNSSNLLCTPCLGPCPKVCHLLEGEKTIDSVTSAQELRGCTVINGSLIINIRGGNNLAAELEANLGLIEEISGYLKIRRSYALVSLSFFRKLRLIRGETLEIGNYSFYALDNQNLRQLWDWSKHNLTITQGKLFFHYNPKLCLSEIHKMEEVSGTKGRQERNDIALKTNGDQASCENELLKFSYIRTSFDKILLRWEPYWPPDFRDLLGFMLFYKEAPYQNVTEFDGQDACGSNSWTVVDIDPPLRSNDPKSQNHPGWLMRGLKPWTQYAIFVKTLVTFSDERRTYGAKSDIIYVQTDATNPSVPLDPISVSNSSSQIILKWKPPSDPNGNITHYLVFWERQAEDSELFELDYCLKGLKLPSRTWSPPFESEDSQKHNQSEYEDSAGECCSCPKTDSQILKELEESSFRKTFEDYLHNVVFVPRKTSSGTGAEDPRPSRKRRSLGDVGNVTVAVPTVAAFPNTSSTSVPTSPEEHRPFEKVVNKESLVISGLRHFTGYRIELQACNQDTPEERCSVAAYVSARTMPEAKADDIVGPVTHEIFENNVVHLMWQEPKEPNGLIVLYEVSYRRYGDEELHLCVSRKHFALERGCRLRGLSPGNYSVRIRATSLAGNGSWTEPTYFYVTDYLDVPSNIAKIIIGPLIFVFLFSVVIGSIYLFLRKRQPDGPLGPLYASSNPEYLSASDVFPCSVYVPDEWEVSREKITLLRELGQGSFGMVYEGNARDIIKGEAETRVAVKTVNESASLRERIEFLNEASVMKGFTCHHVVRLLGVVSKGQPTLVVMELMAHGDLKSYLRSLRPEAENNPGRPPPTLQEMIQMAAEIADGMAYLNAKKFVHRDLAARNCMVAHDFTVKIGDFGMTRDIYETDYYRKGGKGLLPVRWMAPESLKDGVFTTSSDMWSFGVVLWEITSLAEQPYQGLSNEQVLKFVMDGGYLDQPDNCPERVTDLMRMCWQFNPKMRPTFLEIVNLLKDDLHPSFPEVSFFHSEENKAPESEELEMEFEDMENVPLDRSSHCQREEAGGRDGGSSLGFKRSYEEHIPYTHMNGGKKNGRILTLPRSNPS
# MAPKAPK2 = MAPKAPK2 (Homo sapiens, UniProt P49137); test: Activity against various protein tyrosine kinases: MAPKAPK2
# Chain of MAPKAPK2 (P49137 whole entry, species assumed): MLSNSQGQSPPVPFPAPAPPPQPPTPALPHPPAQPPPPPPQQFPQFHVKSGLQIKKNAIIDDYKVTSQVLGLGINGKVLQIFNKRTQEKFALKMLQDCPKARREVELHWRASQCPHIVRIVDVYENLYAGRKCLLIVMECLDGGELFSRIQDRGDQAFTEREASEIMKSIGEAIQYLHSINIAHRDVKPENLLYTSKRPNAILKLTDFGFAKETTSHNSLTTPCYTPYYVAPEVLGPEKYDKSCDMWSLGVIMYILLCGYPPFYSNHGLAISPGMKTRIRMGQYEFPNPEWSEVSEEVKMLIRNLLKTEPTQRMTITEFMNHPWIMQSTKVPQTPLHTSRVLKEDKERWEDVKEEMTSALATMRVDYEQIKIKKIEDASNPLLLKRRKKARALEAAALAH
# p38a = p38a (Homo sapiens, UniProt Q16539); test: Activity against various protein tyrosine kinases: p38a
# PDGFR_alpha = PDGFR_alpha (Homo sapiens, UniProt P16234); test: Activity against various protein tyrosine kinases: PDGFR_alpha
# RSK1 = RSK1 (Homo sapiens, UniProt Q15418); test: Activity against various protein tyrosine kinases: RSK1
# Chain of RSK1 (Q15418 whole entry, species assumed): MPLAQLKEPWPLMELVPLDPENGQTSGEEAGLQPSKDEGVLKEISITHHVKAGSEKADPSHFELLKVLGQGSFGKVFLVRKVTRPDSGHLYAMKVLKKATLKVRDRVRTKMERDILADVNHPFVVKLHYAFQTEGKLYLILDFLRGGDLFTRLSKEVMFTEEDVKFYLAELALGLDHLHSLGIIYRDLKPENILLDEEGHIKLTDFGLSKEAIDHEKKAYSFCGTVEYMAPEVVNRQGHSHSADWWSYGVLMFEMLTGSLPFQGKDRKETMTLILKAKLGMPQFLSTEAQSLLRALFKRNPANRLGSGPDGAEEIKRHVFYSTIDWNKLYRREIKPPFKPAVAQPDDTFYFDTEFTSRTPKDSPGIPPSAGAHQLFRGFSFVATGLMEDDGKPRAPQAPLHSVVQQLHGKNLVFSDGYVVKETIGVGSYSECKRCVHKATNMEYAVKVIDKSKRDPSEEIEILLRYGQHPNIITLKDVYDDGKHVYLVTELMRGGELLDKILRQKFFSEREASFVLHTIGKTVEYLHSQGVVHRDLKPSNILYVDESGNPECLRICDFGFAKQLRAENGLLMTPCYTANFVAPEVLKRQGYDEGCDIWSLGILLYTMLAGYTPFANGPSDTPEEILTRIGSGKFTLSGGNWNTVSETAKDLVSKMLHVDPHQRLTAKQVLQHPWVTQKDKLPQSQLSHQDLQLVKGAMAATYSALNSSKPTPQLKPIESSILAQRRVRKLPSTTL
# TSSK1 = target: T2, TSSK1 (Homo sapiens, UniProt Q9BXA7); test: Activity against various protein tyrosine kinases: TSSK1
# T2 sequence (Q9BXA7 1-367): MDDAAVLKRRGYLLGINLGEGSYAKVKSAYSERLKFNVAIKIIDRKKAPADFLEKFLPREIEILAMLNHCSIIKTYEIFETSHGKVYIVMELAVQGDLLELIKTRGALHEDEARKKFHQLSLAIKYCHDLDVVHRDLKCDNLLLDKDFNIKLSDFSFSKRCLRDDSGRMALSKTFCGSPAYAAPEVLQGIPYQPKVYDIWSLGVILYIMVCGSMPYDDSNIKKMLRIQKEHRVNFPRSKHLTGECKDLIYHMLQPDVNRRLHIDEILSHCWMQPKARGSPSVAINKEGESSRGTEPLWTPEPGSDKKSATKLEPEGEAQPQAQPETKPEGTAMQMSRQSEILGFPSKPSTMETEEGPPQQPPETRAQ
# TSSK2 = target: T3, TSSK2 (Homo sapiens, UniProt Q96PF2); test: Activity against various protein tyrosine kinases: TSSK2
# T3 sequence (Q96PF2 1-358): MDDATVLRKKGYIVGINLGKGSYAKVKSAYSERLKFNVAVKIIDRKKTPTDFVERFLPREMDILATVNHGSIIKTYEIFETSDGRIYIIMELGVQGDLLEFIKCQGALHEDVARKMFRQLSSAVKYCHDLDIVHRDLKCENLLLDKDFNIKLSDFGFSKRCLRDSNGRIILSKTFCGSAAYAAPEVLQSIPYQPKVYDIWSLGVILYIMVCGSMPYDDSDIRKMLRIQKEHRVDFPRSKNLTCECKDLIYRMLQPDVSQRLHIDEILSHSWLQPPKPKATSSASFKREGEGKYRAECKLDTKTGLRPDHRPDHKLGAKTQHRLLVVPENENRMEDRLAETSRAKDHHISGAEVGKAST
# YES = YES (Homo sapiens, UniProt P07947); test: Activity against various protein tyrosine kinases: YES
SMILES,% Inhibition at 10 nM (ABL(T315I)),% Inhibition at 1 μM (ABL(T315I)),% Inhibition at 10 nM (AKT1),% Inhibition at 1 μM (AKT1),% Inhibition at 10 nM (CaMKII (beta)),% Inhibition at 1 μM (CaMKII (beta)),% Inhibition at 10 nM (CHK1),% Inhibition at 1 μM (CHK1),% Inhibition at 10 nM (Erk2),% Inhibition at 1 μM (Erk2),% Inhibition at 10 nM (FGFR2(N549H)),% Inhibition at 1 μM (FGFR2(N549H)),% Inhibition at 10 nM (FGFR4),% Inhibition at 1 μM (FGFR4),% Inhibition at 10 nM (HCK),% Inhibition at 1 μM (HCK),% Inhibition at 10 nM (INSR),% Inhibition at 1 μM (INSR),% Inhibition at 10 nM (MAPKAPK2),% Inhibition at 1 μM (MAPKAPK2),other results
COCCOCCOCCNC(=O)OCCN1CCN(c2cc(Nc3ncc(C(=O)Nc4c(C)cccc4Cl)s3)nc(C)n2)CC1 [mPEG3-NHCOO-Dasatinib],1%,36%,7%,0%,1%,2%,−2%,0%,6%,11%,7%,75%,3%,6%,98%,98%,1%,−1%,1%,−1%,% Inhibition at 10 nM (p38a): 6%; % Inhibition at 1 μM (p38a): 81%; % Inhibition at 10 nM (PDGFR_alpha): 58%; % Inhibition at 1 μM (PDGFR_alpha): 99%; % Inhibition at 10 nM (RSK1): 2%; % Inhibition at 1 μM (RSK1): 0%; % Inhibition at 10 nM (TSSK1): −1%; % Inhibition at 1 μM (TSSK1): 0%; % Inhibition at 10 nM (TSSK2): −1%; % Inhibition at 1 μM (TSSK2): 0%; % Inhibition at 10 nM (YES): 100%; % Inhibition at 1 μM (YES): 100%
COCCOCCOCCOCCOCCOCCOCCNC(=O)OCCN1CCN(c2cc(Nc3ncc(C(=O)Nc4c(C)cccc4Cl)s3)nc(C)n2)CC1 [mPEG7-NHCOO-Dasatinib],4%,26%,−1%,0%,1%,2%,10%,8%,3%,2%,5%,63%,0%,2%,98%,99%,2%,3%,3%,7%,% Inhibition at 10 nM (p38a): 5%; % Inhibition at 1 μM (p38a): 74%; % Inhibition at 10 nM (PDGFR_alpha): 46%; % Inhibition at 1 μM (PDGFR_alpha): 98%; % Inhibition at 10 nM (RSK1): 0%; % Inhibition at 1 μM (RSK1): 4%; % Inhibition at 10 nM (TSSK1): −3%; % Inhibition at 1 μM (TSSK1): −5%; % Inhibition at 10 nM (TSSK2): 3%; % Inhibition at 1 μM (TSSK2): −2%; % Inhibition at 10 nM (YES): 100%; % Inhibition at 1 μM (YES): 102%
